Measurements: the supplement of paper PMC8149375

Experiments:
Conditions in all cases: treatment: drug + dasatinib (fixed dose, not stated); 5 days
769-P [1] = experiment: GI50 of drug in presence of dasatinib; higher = less potent
Method: (§1)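 Primary HTS combination arm: 8 RCC cell lines treated with 8 doses (up to 10 uM) of each library drug plus a fixed dose of dasatinib (dose not stated) for 5 days; viability read by CellTiter-Glo and normalised to DMSO. GI50 was fitted with XLfit, AUC is the area under the dose-response curve, and minimum viability is the lowest fraction of DMSO viability across doses.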

786-O [2] = experiment: as above
Method: as §1

A498 [3] = experiment: as above
Method: as §1

CAKI-1 [4] = experiment: as above
Method: as §1

SN12C [5] = experiment: as above
Method: as §1

TK-10 [6] = experiment: as above
Method: as §1

UO-31 [7] = experiment: as above
Method: as §1

769-P [8] = experiment: minimum viability across doses, drug + dasatinib, relative to DMSO (fraction); higher = less growth inhibition
Method: as §1

786-O [9] = experiment: as above
Method: as §1

A498 [10] = experiment: as above
Method: as §1

ACHN [11] = experiment: as above
Method: as §1

CAKI-1 [12] = experiment: as above
Method: as §1

SN12C [13] = experiment: as above
Method: as §1

TK-10 [14] = experiment: as above
Method: as §1

UO-31 [15] = experiment: as above
Method: as §1

769-P [16] = experiment: AUC of dose-response viability curve, drug + dasatinib, normalised to DMSO (arbitrary (AUC of normalised viability)); higher = less growth inhibition
Method: as §1

786-O [17] = experiment: as above
Method: as §1

A498 [18] = experiment: as above
Method: as §1

ACHN [19] = experiment: as above
Method: as §1

CAKI-1 [20] = experiment: as above
Method: as §1

SN12C [21] = experiment: as above
Method: as §1

TK-10 [22] = experiment: as above
Method: as §1

UO-31 [23] = experiment: as above
Method: as §1

Structure (SMILES)	GI50 of drug (769-P [1]) [µM]	GI50 of drug (786-O [2]) [µM]	GI50 of drug (A498 [3]) [µM]	GI50 of drug (CAKI-1 [4]) [µM]	GI50 of drug (SN12C [5]) [µM]	GI50 of drug (TK-10 [6]) [µM]	GI50 of drug (UO-31 [7]) [µM]	minimum viability across doses (769-P [8])	minimum viability across doses (786-O [9])	minimum viability across doses (A498 [10])	minimum viability across doses (ACHN [11])	minimum viability across doses (CAKI-1 [12])	minimum viability across doses (SN12C [13])	minimum viability across doses (TK-10 [14])	minimum viability across doses (UO-31 [15])	AUC of dose-response viability curve (769-P [16])	AUC of dose-response viability curve (786-O [17])	AUC of dose-response viability curve (A498 [18])	AUC of dose-response viability curve (ACHN [19])	AUC of dose-response viability curve (CAKI-1 [20])	AUC of dose-response viability curve (SN12C [21])	AUC of dose-response viability curve (TK-10 [22])	AUC of dose-response viability curve (UO-31 [23])
Cn1cc(-c2ccc3nnc(Sc4ccc5ncccc5c4)n3n2)cn1 [SGX-523] + Cc1nc(Nc2ncc(C(=O)Nc3c(C)cccc3Cl)s2)cc(N2CCN(CCO)CC2)n1 [dasatinib]	> 10	5.68	> 10	5.5	> 10	> 10	> 10	0.548	0.477	0.743	0.452	0.41	0.679	0.646	0.836	2.38	2.25	2.84	1.87	1.92	2.46	2.41	3.15
O=c1sn(-c2cccc3ccccc23)c(=O)n1Cc1ccccc1 [Tideglusib] + Cc1nc(Nc2ncc(C(=O)Nc3c(C)cccc3Cl)s2)cc(N2CCN(CCO)CC2)n1 [dasatinib]	> 10	0.0101	> 10	> 10	> 10	> 10	> 10	0.632	0.429	0.729	0.357	0.664	0.672	0.642	1.03	2.52	1.76	3.01	1.79	2.44	2.5	2.33	4.27
CC[C@H](Nc1ncnc2[nH]cnc12)c1nc2cccc(F)c2c(=O)n1-c1ccccc1 [CAL-101 (GS-1101)] + Cc1nc(Nc2ncc(C(=O)Nc3c(C)cccc3Cl)s2)cc(N2CCN(CCO)CC2)n1 [dasatinib]	7.53	1.48	> 10		> 10	8.33	6.29	0.477	0.298	0.843	0.341	0.0955	0.546	0.493	0.362	2.32	2.12	3.29	1.86	1.84	2.3	2.44	3.55
CN1C(=O)C(Cc2c[nH]c3ccccc23)NC1=S (centres undefined) [Necrostatin-1] + Cc1nc(Nc2ncc(C(=O)Nc3c(C)cccc3Cl)s2)cc(N2CCN(CCO)CC2)n1 [dasatinib]	> 10	> 10	> 10	> 10	> 10	> 10	> 10	0.71	0.628	0.963	0.492	0.535	0.7	0.639	1.06	2.66	2.48	3.71	1.92	2.13	2.59	2.34	4.58
CCO.N#CC(=C(/N)Sc1ccccc1N)/C(C#N)=C(\N)Sc1ccccc1N [U0126-EtOH] + Cc1nc(Nc2ncc(C(=O)Nc3c(C)cccc3Cl)s2)cc(N2CCN(CCO)CC2)n1 [dasatinib]	> 10	> 10	> 10	6.71	> 10	> 10	> 10	0.68	0.526	0.888	0.353	0.46	0.598	0.524	0.792	2.5	2.5	3.54	1.84	2.37	2.4	2.65	3.2
CC1CCN(C(=O)CC#N)C[C@@H]1N(C)c1ncnc2[nH]ccc12.O=C(O)CC(O)(CC(=O)O)C(=O)O (stereo in doubt) + Cc1nc(Nc2ncc(C(=O)Nc3c(C)cccc3Cl)s2)cc(N2CCN(CCO)CC2)n1 [dasatinib]	> 10		> 10	> 10	> 10	> 10	> 10	0.681	0.439	0.887	0.304	0.567	0.69	0.647	0.934	2.6	1.92	3.5	1.7	2.56	2.48	2.51	3.69
Oc1cc(O)cc(/C=C/c2ccc(O)c(O)c2)c1 [Piceatannol] + Cc1nc(Nc2ncc(C(=O)Nc3c(C)cccc3Cl)s2)cc(N2CCN(CCO)CC2)n1 [dasatinib]	9.79	0.354	> 10	1.15	> 10	> 10	> 10	0.498	0.31	0.903	0.167	0.135	0.603	0.653	1.24	1.97	1.91	3.83	1.78	2.07	2.46	2.59	5.19
